# According to ChEMBL document CHEMBL5579839, “Discovery of new cyclopropane sulfonamide derivatives as EGFR inhibitors to overcome C797S-mediated resistance and EGFR double mutation” (Eur J Med Chem, 2024):
# Calls of active or inactive are those of the source. The rule behind the calls is not given here.
# Experiments:
# BaF3 [1] = experiment: Antiproliferative activity against mouse BaF3 cells harboring EGFR C797S/Del19/T790M mutant; type: functional, cell-based
# NCI-H1975 [2] = experiment: Antiproliferative activity against human NCI-H1975 cells assessed as inhibition of sphere formation incubated for 72 hrs by CCK8 assay; type: functional, cell-based; conditions: NCI-H1975, 72 h
# NCI-H1975 [3] = experiment: Induction of apoptosis in human NCI-H1975 cells assessed as increase in green fluorescence at 10 to 25 nM by TUNNEL method; type: functional, cell-based; conditions: dose 10-25 nM
# BaF3 [4] = experiment: Induction of apoptosis in mouse BaF3 cells harboring EGFR L858R/T790M/C797S mutant assessed as viable cells at 10 nM incubated for 24 hrs by Annexin V-FITC/PI staining based flow cytometry (reference value: 99.77 %); type: functional; conditions: read-out: Activity
# BaF3 [5] = experiment: Induction of apoptosis in mouse BaF3 cells harboring EGFR L858R/T790M/C797S mutant assessed as early apoptotic cells at 10 nM incubated for 24 hrs by Annexin V-FITC/PI staining based flow cytometry (reference value: 0.15 %); type: functional
# NCI-H1975 [6] = experiment: Inhibition of cell migration in human NCI-H1975 cells at 10 nM incubated for 24 hrs by scratch healing assay relative to control; type: functional
# BaF3 [7] = experiment: Inhibition of cell migration in mouse BaF3 cells harboring EGFR L858R/T790M/C797S mutant by transwell assay; type: functional, cell-based
# BaF3 [8] = experiment: Antitumor activity against mouse BaF3 cells allografted in nude mouse at 50 mg/kg, po measured for 7 days relative to control; type: functional; conditions: BaF3, 168 h, time 7 day, read-out: TGI
# [9] = Toxicity in nude mouse allografted with mouse BaF3 cells assessed as animal health at 50 mg/kg, po measured for 7 days; type: organism-based; conditions: in vivo, 168 h, time 7 day
# [10] = Toxicity in nude mouse allografted with mouse BaF3 cells assessed as body weight loss at 50 mg/kg, po measured for 7 days; type: organism-based; conditions: in vivo, 168 h, time 7 day
# NCI-H1975 [11] = experiment: Antitumor activity against human NCI-H1975 cells xenografted in nude mouse at 50 mg/kg, po measured for 7 days relative to control; type: functional; conditions: NCI-H1975, 168 h, time 7 day, read-out: TGI
# BaF3 [12] = experiment: Inhibition of EGFR L858R/T790M/C797S mutant phosphorylation in mouse BaF3 cells assessed as reduction in red fluorescence incubated for 24 hrs by immunofluorescence analysis; type: cell-based
# BaF3 [13] = experiment: Inhibition of EGFR L858R/T790M/C797S mutant in mouse BaF3 cells assessed as reduction in AKT phosphorylation incubated for 24 hrs by Western blot analysis; type: cell-based; conditions: dose <= 100.0 nM
# [14] = biological target: Epidermal growth factor receptor (Homo sapiens, UniProt P00533); experiment: Inhibition of EGFR in human NCI-H1975 cells assessed as reduction in ERK phosphorylation incubated for 24 hrs by Western blot analysis; type: cell-based; conditions: dose <= 50.0 nM
# NCI-H1975 [15] = experiment: Inhibition of fibronectin activation in human NCI-H1975 cells xenografted in nude mouse at 50 mg/kg, po for 7 days by IHC analysis; type: functional, organism-based; conditions: time 7.0 day
# NCI-H1975 [16] = experiment: Inhibition of neovascularization in human NCI-H1975 cells xenografted in nude mouse at 50 mg/kg, po for 7 days by IHC analysis; type: functional, organism-based; conditions: time 7.0 day
# BaF3 [17] = experiment: Inhibition of neovascularization in mouse BaF3 cells allografted in nude mouse at 50 mg/kg, po for 7 days; type: functional, organism-based; conditions: time 7.0 day
# [18] = Cytotoxicity against human HK-2 cells; type: toxicity, cell-based
# [19] = Cytotoxicity against human HaCaT cells; type: toxicity, cell-based
# [20] = Cytotoxicity against VEGF-stimulated human HUVEC cells; type: toxicity, cell-based
# [21] = Toxicity in nude mouse allografted with mouse BaF3 cells assessed as damage in lung at 50 mg/kg, po for 7 days by H and E staining based analysis; type: organism-based; conditions: in vivo, 168 h, time 7 day
# [22] = Toxicity in nude mouse allografted with mouse BaF3 cells assessed as lesion in liver at 50 mg/kg, po for 7 days by H and E staining based analysis; type: organism-based; conditions: in vivo, 168 h, time 7 day
# [23] = Toxicity in nude mouse allografted with mouse BaF3 cells assessed as lesion in spleen at 50 mg/kg, po for 7 days by H and E staining based analysis; type: organism-based; conditions: in vivo, 168 h, time 7 day
# [24] = Toxicity in nude mouse allografted with mouse BaF3 cells assessed as lesion in lung at 50 mg/kg, po for 7 days by H and E staining based analysis; type: organism-based; conditions: in vivo, 168 h, time 7 day
# Epidermal growth factor receptor, sequence (P00533 whole entry): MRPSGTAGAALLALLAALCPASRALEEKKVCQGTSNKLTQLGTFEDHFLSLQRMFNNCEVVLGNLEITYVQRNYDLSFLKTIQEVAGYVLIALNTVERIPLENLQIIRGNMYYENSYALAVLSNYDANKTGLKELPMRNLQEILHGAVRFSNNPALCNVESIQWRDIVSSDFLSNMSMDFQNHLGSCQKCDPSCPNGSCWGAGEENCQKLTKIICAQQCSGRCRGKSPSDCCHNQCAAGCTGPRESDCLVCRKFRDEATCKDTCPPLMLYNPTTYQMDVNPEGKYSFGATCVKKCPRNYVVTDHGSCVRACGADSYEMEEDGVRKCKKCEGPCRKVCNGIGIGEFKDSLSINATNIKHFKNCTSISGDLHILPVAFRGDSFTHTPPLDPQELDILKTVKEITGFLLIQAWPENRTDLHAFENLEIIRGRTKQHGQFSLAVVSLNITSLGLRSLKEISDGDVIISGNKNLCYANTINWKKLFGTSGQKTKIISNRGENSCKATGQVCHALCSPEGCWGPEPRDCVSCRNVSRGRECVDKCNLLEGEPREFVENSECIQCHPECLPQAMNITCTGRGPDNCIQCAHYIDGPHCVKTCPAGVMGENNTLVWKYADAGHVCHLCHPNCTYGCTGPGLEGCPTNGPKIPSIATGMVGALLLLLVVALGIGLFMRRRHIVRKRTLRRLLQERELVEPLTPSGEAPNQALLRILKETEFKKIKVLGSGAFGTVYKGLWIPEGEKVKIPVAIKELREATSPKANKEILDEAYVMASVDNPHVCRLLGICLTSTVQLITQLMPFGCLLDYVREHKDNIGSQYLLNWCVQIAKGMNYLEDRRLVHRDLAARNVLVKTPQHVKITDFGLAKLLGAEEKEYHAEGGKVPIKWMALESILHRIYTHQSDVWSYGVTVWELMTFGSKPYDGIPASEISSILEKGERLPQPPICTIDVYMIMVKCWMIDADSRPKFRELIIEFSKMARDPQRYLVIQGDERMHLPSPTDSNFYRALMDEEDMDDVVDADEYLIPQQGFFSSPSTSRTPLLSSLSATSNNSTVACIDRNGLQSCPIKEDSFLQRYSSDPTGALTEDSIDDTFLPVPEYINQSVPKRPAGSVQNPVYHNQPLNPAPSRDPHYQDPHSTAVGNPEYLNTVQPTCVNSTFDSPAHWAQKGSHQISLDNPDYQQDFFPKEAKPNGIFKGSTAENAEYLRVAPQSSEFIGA
compound,measurement,setting,value
CN1CCCN(c2ccc(Nc3ncc(Br)c(Nc4ccccc4NS(=O)(=O)C4CC4)n3)cc2)CC1,IC50,BaF3 [1],3 nM
same,IC50,NCI-H1975 [2],33.8 nM
same,Activity,NCI-H1975 [3],Active
same,viability at 0.01 µM,BaF3 [4],20.7%
same,Activity,BaF3 [5],9.36%
same,inhibition at 0.01 µM,NCI-H1975 [6],92%
same,inhibition,BaF3 [7],Active
same,inhibition in vivo at 50 mg/kg,BaF3 [8],71.2%
same,Activity,[9],Non-Toxic
same,Activity,[10],Non-Toxic
same,inhibition in vivo at 50 mg/kg,NCI-H1975 [11],83.5%
same,inhibition,BaF3 [12],Active
same,inhibition,BaF3 [13],Dose-Dependent Effect
same,inhibition,[14],Dose-Dependent Effect
same,inhibition,NCI-H1975 [15],Active
same,inhibition,NCI-H1975 [16],Active
same,inhibition,BaF3 [17],Active
same,IC50,[18],2780 nM
same,IC50,[19],5410 nM
same,IC50,[20],799 nM
same,Activity,[21],Non-Toxic
same,Activity,[22],Non-Toxic
same,Activity,[23],Non-Toxic
same,Activity,[24],Non-Toxic
